SMILES strings stand for the structures.

In this test the target is T1, human FOXO1 (constitutively active form Thr24Ala, Ser256Ala, Ser319Ala) (Homo sapiens, UniProt Q12778, S256A/S319A/T24A).
T1 construct: expressed in transfected cells; host or cells: HEK293 cells transfected with pcDNA3.1 plasmid
Kind of test: FOXO1 inhibitor activity assay: cell-based transcriptional (luciferase) reporter assay in HEK293 cells. The note with it: HEK293 cells transfected with insulin response element firefly luciferase reporter, FOXO1 and Renilla luciferase; 10-point dose response 50 μM to 2.5 nM; 24 hours. An outline of the steps: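 IC50 and maximal inhibition were fitted by 4-parameter logistic regression on normalized firefly/Renilla luciferase ratios. The 0% reference used RFP in place of FOXO1, and the 100% reference was DMSO-only with all plasmids.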
A general note: In a reporter assay the amount or activity of a reporter protein is the signal.

T1 sequence (Q12778 whole entry T24A/S256A/S319A): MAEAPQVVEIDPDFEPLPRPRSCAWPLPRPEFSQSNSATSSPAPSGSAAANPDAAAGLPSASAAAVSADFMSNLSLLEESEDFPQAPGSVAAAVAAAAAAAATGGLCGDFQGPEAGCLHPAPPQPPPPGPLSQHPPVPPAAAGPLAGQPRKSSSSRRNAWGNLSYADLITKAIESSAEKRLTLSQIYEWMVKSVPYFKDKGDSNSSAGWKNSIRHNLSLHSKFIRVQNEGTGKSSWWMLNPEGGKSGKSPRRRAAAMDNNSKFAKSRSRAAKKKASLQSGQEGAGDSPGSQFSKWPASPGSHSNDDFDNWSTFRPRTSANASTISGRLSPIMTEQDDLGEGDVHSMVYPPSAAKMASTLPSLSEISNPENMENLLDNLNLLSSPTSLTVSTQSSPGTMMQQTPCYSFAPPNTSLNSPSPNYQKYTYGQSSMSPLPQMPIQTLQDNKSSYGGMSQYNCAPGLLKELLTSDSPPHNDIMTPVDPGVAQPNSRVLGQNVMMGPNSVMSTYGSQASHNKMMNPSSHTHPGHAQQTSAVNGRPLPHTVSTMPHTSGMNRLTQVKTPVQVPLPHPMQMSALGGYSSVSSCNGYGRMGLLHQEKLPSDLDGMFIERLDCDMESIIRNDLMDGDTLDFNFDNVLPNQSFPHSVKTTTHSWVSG

Usually IC50 stands for the concentration that inhibits the measured activity by half. Higher therefore signals weaker potency in that assay. Consider `Cn1nc(NC(=O)c2ccc(N3CCC[C@H]3C(=O)O)nc2)cc1-c1nc2cccc(F)c2[nH]1` [Compound A-155, (2S)-1-[5-[[5-(7-fluoro-1H-benzimidazol-2-yl)-1-methyl-pyrazol-3-yl]carbamoyl]-2-pyridyl]pyrrolidine-2-carboxylic acid], for which the half-maximal inhibitory concentration (IC50) was over 1000 nM. Under `COc1ccc(C(=O)Nc2cc(C(=O)NC3COC3)[nH]n2)cc1Cl` [Compound A-16, 3-[(3-chloro-4-methoxy-benzoyl)amino]-N-(oxetan-3-yl)-1H-pyrazole-5-carboxamide] stands over 1000 nM. Take `O=C(Nc1cc(-c2nc3cc(Br)ccc3[nH]2)[nH]n1)c1ccc(N2CCC(O)CC2)nc1` [Compound A-90, N-[5-(5-bromo-1H-benzimidazol-2-yl)-1H-pyrazol-3-yl]-6-(4-hydroxy-1-piperidyl)pyridine-3-carboxamide]: the IC50 is over 1000 nM. Under `O=C(Nc1cc(-c2nc3cc(OC(F)(F)F)ccc3[nH]2)[nH]n1)c1ccc(N2CCC(O)CC2)nc1` [Compound A-108, 6-(4-hydroxy-1-piperidyl)-N-[5-[5-(trifluoromethoxy)-1H-benzimidazol-2-yl]-1H-pyrazol-3-yl]pyridine-3-carboxamide] stands over 1000 nM; under `O=C(Nc1cc(-c2nc3cc(Br)ccc3[nH]2)[nH]n1)c1ccc(N2CCOCC2)nc1` [Compound A-91, N-[5-(5-bromo-1H-benzimidazol-2-yl)-1H-pyrazol-3-yl]-6-morpholino-pyridine-3-carboxamide], over 1000 nM. On to `O=C(Nc1cc(-c2nc3ccccc3[nH]2)[nH]n1)c1ccc(N2CCC[C@H]2CO)nc1` [Compound A-52, N-[5-(1H-benzimidazol-2-yl)-1H-pyrazol-3-yl]-6-[(2S)-2-(hydroxymethyl)-pyrrolidin-1-yl]pyridine-3-carboxamide], for which the IC50 lay in the range of 100 to 300 nM. The value for `COCCOc1ccc(C(=O)Nc2cc(-c3nc4ccccc4[nH]3)[nH]n2)cc1C` [Compound A-94, N-[5-(1H-benzimidazol-2-yl)-1H-pyrazol-3-yl]-4-(2-methoxyethoxy)-3-methyl-benzamide] was under 100 nM; that for `COc1ccc(C(=O)Nc2n[nH]c(-c3nc4ccccc4[nH]3)c2Br)cc1Cl` [Compound A-71, N-[5-(1H-benzimidazol-2-yl)-4-bromo-1H-pyrazol-3-yl]-3-chloro-4-methoxy-benzamide] was 300 to 1000 nM; that for `Cn1nc(NC(=O)c2ccc(N3CCN4C(=O)CCC4C3)nc2)cc1-c1nc2ccccc2[nH]1` (centres unmarked) [Compound A-228, N-[5-(1H-benzimidazol-2-yl)-1-methyl-pyrazol-3-yl]-6-(6-oxo-1,3,4,7,8,8a-hexahydropyrrolo[1,2-a]pyrazin-2-yl)pyridine-3-carboxamide] was 100 to 300 nM. The value for `COCC(=O)N1CCN(c2ccc(C(=O)Nc3cc(-c4nc5ccccc5[nH]4)n(C)n3)cn2)CC1` [Compound A-271] was 100 to 300 nM; that for `Cn1nc(NC(=O)c2ccc(N3CCC(O)C3)nc2)cc1-c1nc2ccccc2[nH]1` (stereo in doubt) [Compound A-227, N-[5-(1H-benzimidazol-2-yl)-1-methyl-pyrazol-3-yl]-6-[(3R)-3-hydroxy-pyrrolidin-1-yl]pyridine-3-carboxamide] was 300 to 1000 nM; that for `Cn1nc(NC(=O)c2ccc(N3CCC[C@H]3C(=O)O)nc2)cc1-c1nc2cc(F)ccc2[nH]1` [Compound A-151, (2S)-1-[5-[[5-(5-fluoro-1H-benzimidazol-2-yl)-1-methyl-pyrazol-3-yl]carbamoyl]-2-pyridyl]pyrrolidine-2-carboxylic acid] was over 1000 nM.

`COc1cc(F)c2[nH]c(-c3cc(NC(=O)c4ccc(N5CCC(OC)CC5)nc4)n[nH]3)nc2c1` [Compound A-193, N-[5-(7-fluoro-5-methoxy-1H-benzimidazol-2-yl)-1H-pyrazol-3-yl]-6-(4-methoxy-1-piperidyl)pyridine-3-carboxamide] had an IC50 of over 1000 nM. Under `CCOC(=O)[C@@H]1CCCN1c1ccc(C(=O)Nc2cc(-c3nc4cc(F)ccc4[nH]3)n(C)n2)cn1` [Compound A-145, ethyl (25)-1-[5-[[5-(5-fluoro-1H-benzimidazol-2-yl)-1-methyl-pyrazol-3-yl]carbamoyl]-2-pyridyl]pyrrolidine-2-carboxylate] stands over 1000 nM; under `Cn1nc(NC(=O)c2ccc(N3CCO[C@@H](CO)C3)nc2)cc1-c1nc2ccccc2[nH]1` [Compound A-248, N-[5-(1H-benzimidazol-2-yl)-1-methyl-pyrazol-3-yl]-6-[(2R)-2-(hydroxymethyl)morpholin-4-yl]pyridine-3-carboxamide], under 100 nM. In turn, `Cc1ccc2[nH]c(-c3cc(NC(=O)c4ccc(OCCO)c(Cl)c4)n[nH]3)nc2c1` [Compound A-115, 3-chloro-4-(2-hydroxyethoxy)-N-[5-(5-methyl-1H-benzimidazol-2-yl)-1H-pyrazol-3-yl]benzamide] gave an IC50 of under 100 nM. As for `COc1ccc(C(=O)Nc2cc(-c3nc4cccc(F)c4[nH]3)n(C)n2)cc1Cl` [Compound A-125, 3-chloro-N-[5-(7-fluoro-1H-benzimidazol-2-yl)-1-methyl-pyrazol-3-yl]-4-methoxy-benzamide], the IC50 was 100 to 300 nM. The value for `COc1cc(F)c2[nH]c(-c3cc(NC(=O)c4ccc(N5CCN(CCO)CC5)cc4)nn3C)nc2c1` [Compound A-222, N-[5-(7-fluoro-5-methoxy-1H-benzimidazol-2-yl)-1-methyl-pyrazol-3-yl]-4-[4-(2-hydroxyethyl)piperazin-1-yl]benzamide] was under 100 nM. For the compound `CCOC(=O)[C@@H]1CCCN1c1ccc(C(=O)Nc2cc(-c3nc4ccccc4[nH]3)[nH]n2)cn1` [Compound A-56, ethyl (2S)-1-[5-[[5-(1H-benzimidazol-2-yl)-1H-pyrazol-3-yl]carbamoyl]-2-pyridyl]pyrrolidine-2-carboxylate], the half-inhibitory concentration (IC50) is over 1000 nM. The value for `Cn1nc(NC(=O)c2ccc(N3CCN(CCO)CC3)nc2)cc1-c1nc2ccccc2[nH]1` [Compound A-204, N-[5-(1H-benzimidazol-2-yl)-1-methyl-pyrazol-3-yl]-6-[4-(2-hydroxy-ethyl)piperazin-1-yl]pyridine-3-carboxamide] was 100 to 300 nM; that for `COCCN1CCN(c2ccc(C(=O)Nc3cc(-c4nc5cc(OC)cc(F)c5[nH]4)[nH]n3)cn2)CC1` [Compound A-192, N-[5-(7-fluoro-5-methoxy-1H-benzimidazol-2-yl)-1H-pyrazol-3-yl]-6-[4-(2-methoxyethyl)piperazin-1-yl]pyridine-3-carboxamide] was over 1000 nM. `Cc1ccc2[nH]c(-c3cc(NC(=O)c4ccc(N5CCC(O)CC5)nc4)n[nH]3)nc2c1` [Compound A-99, 6-(4-hydroxy-1-piperidyl)-N-[5-(5-methyl-1H-benzimidazol-2-yl)-1H-pyrazol-3-yl]pyridine-3-carboxamide]: the concentration for half-maximal inhibition (IC50) was in the range of 100 to 300 nM.

Compound `Cn1nc(NC(=O)c2ccc(N3CCC4(CCCO4)CC3)nc2)cc1-c1nc2ccccc2[nH]1` [Compound A-273, N-[5-(1H-benzimidazol-2-yl)-1-methyl-pyrazol-3-yl]-6-(1-oxa-8-azaspiro[4.5]decan-8-yl)pyridine-3-carboxamide] showed a 50% inhibitory concentration (IC50) of 100 to 300 nM. The value for `O=C(Nc1cc(-c2nc3cc(OC(F)(F)F)ccc3[nH]2)[nH]n1)c1ccc(OCCO)c(Cl)c1` [Compound A-116, 3-chloro-4-(2-hydroxyethoxy)-N-[5-[5-(trifluoromethoxy)-1H-benzimidazol-2-yl]-1H-pyrazol-3-yl]benzamide] was 100 to 300 nM. `Cn1nc(NC(=O)c2ccc(N3CCC(O)(CCO)CC3)nc2)cc1-c1nc2ccccc2[nH]1` [Compound A-283, N-[5-(1H-benzimidazol-2-yl)-1-methyl-pyrazol-3-yl]-6-[4-hydroxy-4-(2-hydroxyethyl)-1-piperidyl]pyridine-3-carboxamide] had an IC50 of under 100 nM. In turn, `COc1cc(F)c2[nH]c(-c3cc(NC(=O)c4ccc(N5CCN(C6COC6)CC5)cc4)nn3C)nc2c1` [Compound A-219, N-[5-(7-fluoro-5-methoxy-1H-benzimidazol-2-yl)-1-methyl-pyrazol-3-yl]-4-[4-(oxetan-3-yl)piperazin-1-yl]benzamide] registered a half-maximal inhibitory concentration (IC50) of under 100 nM.

Compound `COCCN1CCN(c2ccc(C(=O)Nc3cc(-c4nc5cc(OC)cc(F)c5[nH]4)n(C)n3)cn2)CC1` [Compound A-190, N-[5-(7-fluoro-5-methoxy-1H-benzimidazol-2-yl)-1-methyl-pyrazol-3-yl]-6-[4-(2-methoxyethyl)piperazin-1-yl]pyridine-3-carboxamide] registered an IC50 of under 100 nM.

`COCCOc1ccc(C(=O)Nc2cc(-c3nc4ccccc4[nH]3)[nH]n2)cc1Cl` [Compound A-29, N-[5-(1H-benzimidazol-2-yl)-1H-pyrazol-3-yl]-3-chloro-4-(2-methoxyethoxy)benzamide] gave an IC50 of under 100 nM. The value for `Cc1ccc2[nH]c(-c3cc(NC(=O)c4ccc(N5CCC(CO)CC5)nc4)n[nH]3)nc2c1` [Compound A-98, 6-[4-(hydroxymethyl)-1-piperidyl]-N-[5-(5-methyl-1H-benzimidazol-2-yl)-1H-pyrazol-3-yl]pyridine-3-carboxamide] was under 100 nM; that for `CN1CCN(c2ccc(C(=O)Nc3cc(-c4nc5ccccc5[nH]4)[nH]n3)cn2)CC1=O` [Compound A-243, N-[5-(1H-benzimidazol-2-yl)-1H-pyrazol-3-yl]-6-(4-methyl-3-oxo-piperazin-1-yl)pyridine-3-carboxamide] was 300 to 1000 nM; that for `CCOC(=O)[C@H]1CCCN1c1ccc(C(=O)Nc2cc(-c3nc4cc(F)ccc4[nH]3)n(C)n2)cn1` [Compound A-146, ethyl (2R)-1-[5-[[5-(5-fluoro-1H-benzimidazol-2-yl)-1-methyl-pyrazol-3-yl]carbamoyl]-2-pyridyl]pyrrolidine-2-carboxylate] was over 1000 nM. Under `Cn1nc(NC(=O)c2ccc(N3CCNCC3)nc2)cc1-c1nc2ccccc2[nH]1` [Compound A-216, N-[5-(1H-benzimidazol-2-yl)-1-methyl-pyrazol-3-yl]-6-piperazin-1-yl-pyridine-3-carboxamide] stands 100 to 300 nM.

(Values after patent US20230416228A1 (Forkhead Biotherapeutics, Inc., priority 2020, published 2023).)
